# Test system: participants with Raynaud's Phenomenon secondary mostly to systemic sclerosis (SSc-RP)
# Assay: Frequency of weekly symptomatic RP attacks (patient diary), Phase 2a study Part A
# Format: in vivo, human
# Conditions: ITT Part A
# Procedure: A randomized, placebo-controlled phase 2a study was performed and is in progress to assess the safety and efficacy of cilnidipine (10 mg and 20 mg) alone and in combination with 5 mg tadalafil, in participants with diagnosis of scleroderma and/or secondary Raynaud's disease.
# The relevant metrics measured by this tool daily are: • Study medication • SSc-RP symptoms (Reporting an attack including duration of attack) • Severity of the attack considering all symptoms of the attack e.g., tingling, numbness, pain, color changes (VAS 0-10 cm scale) • Participant's location at the time of the attack (inside home/outside home) • Selecting symptoms experienced during the attack (tingling, numbness, pain, color changes, other) • Pain rating during the attack (11-point Likert scale) • The RCS based on how much difficulty participants had with Raynaud's today, how many attacks the participant had, and how long they lasted. Participants will also be asked to consider how much pain, numbness, or other symptoms the Raynaud's caused in fingers (including painful sores), and how much the Raynaud's alone affected the use of hands today (VAS 0-10 cm scale).
# Percent change from baseline evaluation for frequency of weekly RP attacks were or will be used as the primary efficacy variable. The sponsor-developed participant-informed diary will be used to record data. Frequency of weekly RP attacks is defined as the total number of RP attacks divided by the number of days with available diary data within the last 7 days of each dosing period then multiplied by 7. Total number of RP attacks during the last 7 days of screening period divided by the number of days with available data then multiplied by 7 will be used as baseline for the analysis of all periods. The variable will be calculated as follows:
# Percentage change={(weekly RP attacks for the last 7 days of each dosing period−Baseline weekly RP attacks)/Baseline weekly RP attacks}*100%.
# Absolute change=weekly RP attacks for the last 7 days of each dosing period−Baseline weekly RP attacks
# Percent change from baseline evaluation for frequency of weekly RP attacks was and will be the primary efficacy endpoint. Frequency of weekly RP attacks is defined as the total number of RP attacks divided by the number of days with available diary data within the last 7 days of each dosing period then multiplied by 7. Total number of RP attacks during the last 7 days of screening period divided by the number of days with available data then multiplied by 7 will be used as baseline for the analysis of all periods.
# The following data was actually obtained in accordance with the protocol and plan delineated in Examples 1 and 2. The accompanying data involved 11 patients out of the planned 76 patient study. The study was done in patients with scleroderma (systemic sclerosis) who had relatively frequent Raynaud symptoms as they needed to average at least one attack per day during a screening period of up to two weeks. In this first phase of this double-blind placebo-controlled, prospective randomized study, patients were treated in parallel and after meeting study criteria were randomized to receive either placebo, cilnidipine 10 mg daily, cilnidipine 20 mg daily, tadalafil 5 mg daily, cilnidipine 10 mg plus 5 mg of tadalafil, or cilnidipine 20 mg plus 5 mg of tadalafil.
# [1] = Cilnidipine 10 mg, n 1, Excluding Outliers
# [2] = Cilnidipine 10 mg, n 1, by Baseline RCS, 1st block (RCS <5.0)
# [3] = Cilnidipine 20 mg, n 2, Excluding Outliers
# [4] = Cilnidipine 20 mg, n 2, by Baseline RCS, 1st block (RCS <5.0)
# [5] = Pooled Cilnidipine 10 mg and Cilnidipine 10 mg + Tadalafil 5 mg (N = 3)
# [6] = Pooled Cilnidipine 10 mg and Cilnidipine 10 mg + Tadalafil 5 mg, n 1, by Baseline RCS, 2nd block (RCS >5.0)
# [7] = Pooled Cilnidipine 10 mg and Cilnidipine 10 mg + Tadalafil 5 mg, n 2, by Baseline RCS, 1st block (RCS <5.0)
# [8] = Pooled Cilnidipine 10 mg and Cilnidipine 10 mg + Tadalafil 5 mg, n 3, Excluding Outliers
# [9] = Pooled Cilnidipine 20 mg and Cilnidipine 20 mg + Tadalafil 5 mg (N = 4)
# [10] = Pooled Cilnidipine 20 mg and Cilnidipine 20 mg + Tadalafil 5 mg, n 1, by Baseline RCS, 2nd block (RCS >5.0)
# [11] = Pooled Cilnidipine 20 mg and Cilnidipine 20 mg + Tadalafil 5 mg, n 3, by Baseline RCS, 1st block (RCS <5.0)
structure (smiles),measurement,setting,value
"COCCOC(=O)C1=C(C)NC(C)=C(C(=O)OC/C=C/c2ccccc2)C1c1cccc([N+](=O)[O-])c1 (stereo not shown) [Cilnidipine, cilnidipine]","Weekly Symptomatic RP Attacks Change from Baseline, Mean",Cilnidipine 10 mg (N = 1),−7.00
same,"Weekly Symptomatic RP Attacks Change from Baseline, Median",Cilnidipine 10 mg (N = 1),−7.00
same,"Weekly Symptomatic RP Attacks Percent Change from Baseline, Mean",Cilnidipine 10 mg (N = 1),−33.33%
same,"Weekly Symptomatic RP Attacks Percent Change from Baseline, Median",Cilnidipine 10 mg (N = 1),−33.33%
same,"Weekly Symptomatic RP Attacks, Mean",Cilnidipine 10 mg (N = 1),14.00
same,"Weekly Symptomatic RP Attacks, Median",Cilnidipine 10 mg (N = 1),14.00
same,"Weekly Symptomatic RP Attacks Change from Baseline, Mean (SD)",[1],−7.00
same,"Weekly Symptomatic RP Attacks Change from Baseline, Median",[1],−7.00
same,"Weekly Symptomatic RP Attacks Percent Change from Baseline, Mean (SD)",[1],−33.33%
same,"Weekly Symptomatic RP Attacks Percent Change from Baseline, Median",[1],−33.33%
same,"Weekly Symptomatic RP Attacks, Mean (SD)",[1],14.00
same,"Weekly Symptomatic RP Attacks, Median",[1],14.00
same,"Weekly Symptomatic RP Attacks Change from Baseline, Mean (SD)",[2],−7.00
same,"Weekly Symptomatic RP Attacks Change from Baseline, Median",[2],−7.00
same,"Weekly Symptomatic RP Attacks Percent Change from Baseline, Mean (SD)",[2],−33.33%
same,"Weekly Symptomatic RP Attacks Percent Change from Baseline, Median",[2],−33.33%
same,"Weekly Symptomatic RP Attacks, Mean (SD)",[2],14.00
same,"Weekly Symptomatic RP Attacks, Median",[2],14.00
same,"Weekly Symptomatic RP Attacks Change from Baseline, Mean",Cilnidipine 20 mg (N = 2),−4.50
same,"Weekly Symptomatic RP Attacks Change from Baseline, Median",Cilnidipine 20 mg (N = 2),−4.50
same,"Weekly Symptomatic RP Attacks Percent Change from Baseline, Mean",Cilnidipine 20 mg (N = 2),−33.73%
same,"Weekly Symptomatic RP Attacks Percent Change from Baseline, Median",Cilnidipine 20 mg (N = 2),−33.73%
same,"Weekly Symptomatic RP Attacks, Mean",Cilnidipine 20 mg (N = 2),8.00
same,"Weekly Symptomatic RP Attacks, Median",Cilnidipine 20 mg (N = 2),8.00
same,"Weekly Symptomatic RP Attacks Change from Baseline, Mean (SD)",[3],−4.50 (3.536)
same,"Weekly Symptomatic RP Attacks Change from Baseline, Median",[3],−4.50
same,"Weekly Symptomatic RP Attacks Percent Change from Baseline, Mean (SD)",[3],−33.73 (7.296) %
same,"Weekly Symptomatic RP Attacks Percent Change from Baseline, Median",[3],−33.73%
same,"Weekly Symptomatic RP Attacks, Mean (SD)",[3],8.00 (4.243)
same,"Weekly Symptomatic RP Attacks, Median",[3],8.00
same,"Weekly Symptomatic RP Attacks Change from Baseline, Mean (SD)",[4],−4.50 (3.536)
same,"Weekly Symptomatic RP Attacks Change from Baseline, Median",[4],−4.50
same,"Weekly Symptomatic RP Attacks Percent Change from Baseline, Mean (SD)",[4],−33.73 (7.296) %
same,"Weekly Symptomatic RP Attacks Percent Change from Baseline, Median",[4],−33.73%
same,"Weekly Symptomatic RP Attacks, Mean (SD)",[4],8.00 (4.243)
same,"Weekly Symptomatic RP Attacks, Median",[4],8.00
same,"Weekly Symptomatic RP Attacks Change from Baseline, Mean",[5],−4.67
same,"Weekly Symptomatic RP Attacks Change from Baseline, Median",[5],−4.00
same,"Weekly Symptomatic RP Attacks Percent Change from Baseline, Mean",[5],−40.21%
same,"Weekly Symptomatic RP Attacks Percent Change from Baseline, Median",[5],−42.86%
same,"Weekly Symptomatic RP Attacks, Mean",[5],7.67
same,"Weekly Symptomatic RP Attacks, Median",[5],5.00
same,"Weekly Symptomatic RP Attacks Change from Baseline, Mean (SD)",[6],−3.00
same,"Weekly Symptomatic RP Attacks Change from Baseline, Median",[6],−3.00
same,"Weekly Symptomatic RP Attacks Percent Change from Baseline, Mean (SD)",[6],−42.86%
same,"Weekly Symptomatic RP Attacks Percent Change from Baseline, Median",[6],−42.86%
same,"Weekly Symptomatic RP Attacks, Mean (SD)",[6],4.00
same,"Weekly Symptomatic RP Attacks, Median",[6],4.00
same,"Weekly Symptomatic RP Attacks Change from Baseline, Mean (SD)",[7],−5.50 (2.121)
same,"Weekly Symptomatic RP Attacks Change from Baseline, Median",[7],−5.50
same,"Weekly Symptomatic RP Attacks Percent Change from Baseline, Mean (SD)",[7],−38.89 (7.857) %
same,"Weekly Symptomatic RP Attacks Percent Change from Baseline, Median",[7],−38.89%
same,"Weekly Symptomatic RP Attacks, Mean (SD)",[7],9.50 (6.364)
same,"Weekly Symptomatic RP Attacks, Median",[7],9.50
same,"Weekly Symptomatic RP Attacks Change from Baseline, Mean (SD)",[8],−4.67 (2.082)
same,"Weekly Symptomatic RP Attacks Change from Baseline, Median",[8],−4.00
same,"Weekly Symptomatic RP Attacks Percent Change from Baseline, Mean (SD)",[8],−40.21 (6.009) %
same,"Weekly Symptomatic RP Attacks Percent Change from Baseline, Median",[8],−42.86%
same,"Weekly Symptomatic RP Attacks, Mean (SD)",[8],7.67 (5.508)
same,"Weekly Symptomatic RP Attacks, Median",[8],5.00
same,"Weekly Symptomatic RP Attacks Change from Baseline, Mean",[9],−3.63
same,"Weekly Symptomatic RP Attacks Change from Baseline, Median",[9],−3.50
same,"Weekly Symptomatic RP Attacks Percent Change from Baseline, Mean",[9],−25.00%
same,"Weekly Symptomatic RP Attacks Percent Change from Baseline, Median",[9],−28.17%
same,"Weekly Symptomatic RP Attacks, Mean",[9],9.75
same,"Weekly Symptomatic RP Attacks, Median",[9],10.50
same,"Weekly Symptomatic RP Attacks Change from Baseline, Mean (SD)",[10],−0.50
same,"Weekly Symptomatic RP Attacks Change from Baseline, Median",[10],−0.50
same,"Weekly Symptomatic RP Attacks Percent Change from Baseline, Mean (SD)",[10],−4.76%
same,"Weekly Symptomatic RP Attacks Percent Change from Baseline, Median",[10],−4.76%
same,"Weekly Symptomatic RP Attacks, Mean (SD)",[10],10.00
same,"Weekly Symptomatic RP Attacks, Median",[10],10.00
same,"Weekly Symptomatic RP Attacks Change from Baseline, Mean (SD)",[11],−4.67 (2.517)
same,"Weekly Symptomatic RP Attacks Change from Baseline, Median",[11],−5.00
same,"Weekly Symptomatic RP Attacks Percent Change from Baseline, Mean (SD)",[11],−31.75 (6.199) %
same,"Weekly Symptomatic RP Attacks Percent Change from Baseline, Median",[11],−28.57%
same,"Weekly Symptomatic RP Attacks, Mean (SD)",[11],9.67 (4.163)
same,"Weekly Symptomatic RP Attacks, Median",[11],11.00
same,"Weekly Symptomatic RP Attacks Change from Baseline, Mean (SD)","Pooled Cilnidipine 20 mg and Cilnidipine 20 mg + Tadalafil 5 mg, n 4, Excluding Outliers",−3.63 (2.926)

# Source: patent US20240358693A1, “METHODS OF TREATING PAIN” (Aisa Pharma, Inc., priority 2023, published 2024)
